According to US9227930B2, “Aminoindane derivatives, pharmaceutical compositions containing them, and their use in therapy” (ABBOTT LABORATORIES, priority 2010, dated 2016):
pKi: −log10 of the molar value. Where a name gives a salt, the structure may show the parent alone.

Each molecule was assayed against human GlyT1c transporter (Homo sapiens (Human), UniProt P48067) (assay: Radioligand binding assay using recombinant CHO cell membranes expressing human GlyT1). Conditions: read-out: radioligand binding Kiapp.
Chain of human GlyT1c transporter (P48067 whole entry): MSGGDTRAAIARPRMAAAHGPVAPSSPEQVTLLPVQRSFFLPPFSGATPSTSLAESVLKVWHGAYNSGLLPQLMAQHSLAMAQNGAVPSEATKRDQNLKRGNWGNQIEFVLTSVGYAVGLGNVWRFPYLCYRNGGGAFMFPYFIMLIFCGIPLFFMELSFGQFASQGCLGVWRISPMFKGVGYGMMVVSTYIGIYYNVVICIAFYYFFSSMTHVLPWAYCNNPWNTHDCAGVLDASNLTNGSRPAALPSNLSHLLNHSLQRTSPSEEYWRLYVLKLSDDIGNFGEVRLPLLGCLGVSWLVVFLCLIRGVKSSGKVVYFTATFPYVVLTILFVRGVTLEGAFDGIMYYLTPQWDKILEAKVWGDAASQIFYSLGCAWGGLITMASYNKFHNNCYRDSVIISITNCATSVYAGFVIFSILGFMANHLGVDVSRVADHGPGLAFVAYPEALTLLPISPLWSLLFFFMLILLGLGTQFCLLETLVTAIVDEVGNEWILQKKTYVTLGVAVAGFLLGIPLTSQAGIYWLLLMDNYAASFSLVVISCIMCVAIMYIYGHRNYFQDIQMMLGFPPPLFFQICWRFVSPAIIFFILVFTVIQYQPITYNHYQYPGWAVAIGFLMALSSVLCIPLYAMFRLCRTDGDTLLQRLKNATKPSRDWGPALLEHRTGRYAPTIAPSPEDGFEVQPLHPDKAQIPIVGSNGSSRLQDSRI
Protocol: 2. Radioligand binding assays using recombinant CHO cell membranes expressing human GlyT1:
Radioligand binding to human GlyT1c transporter-expressing membranes was determined as described in Mezler et al., Molecular Pharmacology 74:1705-1715, 2008.

Row | pKi | Compound
1 | ≥ 7.00 | Cn1cnc(S(=O)(=O)NCCOc2cc3c(cc2F)C[C@@H](N2CC(C)(O)C2)[C@H]3Cc2ccccc2)c1 (relative stereo) [Example 206, cis-N-(2-{[3-Benzyl-6-fluoro-2-(3-hydroxy-3-methylazetidin-1-yl)-2,3-dihydro-1H-inden-5-yl]oxy}ethyl)-1-methyl-1H-imidazole-4-sulfonamide]
2 | ≥ 8.00 | CN[C@@H]1Cc2cc(F)c(CNS(=O)(=O)c3cn(C)cn3)cc2[C@@H]1Cc1ccccc1 (relative stereo) [Example 209a, cis-N-{[3-Benzyl-6-fluoro-2-(methylamino)-2,3-dihydro-1H-inden-5-yl]methyl}-1-methyl-1H-imidazole-4-sulfonamide]
3 | ≥ 8.00 | CN[C@@H]1Cc2cc(F)c(CNS(=O)(=O)c3cn(C)cn3)cc2[C@H]1Cc1ccccc1 (relative stereo) [Example 209b, trans-N-{[3-benzyl-6-fluoro-2-(methylamino)-2,3-dihydro-1H-inden-5-yl]methyl}-1-methyl-1H-imidazole-4-sulfonamide]
4 | ≥ 7.00 | Cn1cnc(S(=O)(=O)NCCOc2ccc3c(c2)C(Cc2ccccc2)C(N2CC(C)(C)C2)C3)c1 (stereo not drawn) [Example 205, N-(2-{[3-Benzyl-2-(3,3-dimethylazetidin-1-yl)-2,3-dihydro-1H-inden-5-yl]oxy}ethyl)-1-methyl-1H-imidazole-4-sulfonamide]
5 | ≥ 6.00 | CN(CCOc1cc2c(cc1F)CC(N1CC(C)(O)C1)C2Cc1ccccc1)S(=O)(=O)c1cn(C)cn1 (stereo not drawn) [Example 207, N-(2-(3-Benzyl-6-fluoro-2-(3-hydroxy-3-methylazetidin-1-yl)-2,3-dihydro-1H-inden-5-yloxy)ethyl)-N,1-dimethyl-1H-imidazole-4-sulfonamide]

Further lines, the molecule ahead of its results:

Row | Compound | pKi
6 | CN[C@@H]1Cc2cc(F)c(OCCNS(=O)(=O)c3cn(C)cn3)cc2[C@@H]1Cc1ccccc1 (relative stereo) [Example 200, cis-N-(2-(3-Benzyl-6-fluoro-2-(methylamino)-2,3-dihydro-1H-inden-5-yloxy)ethyl)-1-methyl-1H-imidazole-4-sulfonamide] | ≥ 7.00
7 | Cn1cnc(S(=O)(=O)NCCOc2cc3c(cc2F)C[C@@H](N2CCC2)[C@H]3Cc2ccccc2)c1 (relative stereo) [Example 201, cis-N-(2-{[2-(Azetidin-1-yl)-3-benzyl-6-fluoro-2,3-dihydro-1H-inden-5-yl]oxy}ethyl)-1-methyl-1H-imidazole-4-sulfonamide] | ≥ 7.00
8 | CCOC(=O)NC1Cc2ccc(OCCNS(=O)(=O)c3cn(C)cn3)cc2C1Cc1ccccc1 (stereo not drawn) [Example 195, Ethyl 1-benzyl-6-(2-(1-methyl-1H-imidazole-4-sulfonamido)ethoxy)-2,3-dihydro-1H-inden-2-ylcarbamate] | ≥ 6.00
9 | CCOC(=O)NC1Cc2ccc(OCCNS(=O)(=O)c3nccn3C)cc2C1Cc1ccccc1 (stereo not drawn) [Example 196, Ethyl 1-benzyl-6-(2-(1-methyl-1H-imidazole-2-sulfonamido)ethoxy)-2,3-dihydro-1H-inden-2-ylcarbamate] | ≥ 5.00
10 | Cn1cnc(S(=O)(=O)NCCOc2ccc3c(c2)C(Cc2ccccc2)C(N)C3)c1 (stereo not drawn) [Example 197, N-{2-[(2-Amino-3-benzyl-2,3-dihydro-1H-inden-5-yl)oxy]ethyl}-1-methyl-1H-imidazole-4-sulfonamide hydrochloride] | ≥ 7.00
11 | Cn1ccnc1S(=O)(=O)NCCOc1ccc2c(c1)C(Cc1ccccc1)C(N)C2 (stereo not drawn) [Example 198, N-(2-(2-Amino-3-benzyl-2,3-dihydro-1H-inden-5-yloxy)ethyl)-1-methyl-1H-imidazole-2-sulfonamide hydrochloride] | ≥ 5.00
12 | CNC1Cc2ccc(OCCNS(=O)(=O)c3cn(C)cn3)cc2C1Cc1ccccc1 (stereo not drawn) [Example 199, N-(2-(3-Benzyl-2-(methylamino)-2,3-dihydro-1H-inden-5-yloxy)ethyl)-1-methyl-1H-imidazole-4-sulfonamide] | ≥ 8.00
13 | Cn1cnc(S(=O)(=O)NCCOc2ccc3c(c2)C(Cc2ccccc2)C(N2CCC2)C3)c1 (stereo not drawn) [Example 202, N-(2-(2-(Azetidin-1-yl)-3-benzyl-2,3-dihydro-1H-inden-5-yloxy)ethyl)-1-methyl-1H-imidazole-4-sulfonamide] | ≥ 8.00
14 | CC1CN(C2Cc3cc(F)c(OCCNS(=O)(=O)c4cn(C)cn4)cc3C2Cc2ccccc2)C1 (stereo not drawn) [Example 203, N-(2-(3-Benzyl-6-fluoro-2-(3-methylazetidin-1-yl)-2,3-dihydro-1H-inden-5-yloxy)ethyl)-1-methyl-1H-imidazole-4-sulfonamide] | ≥ 7.00
15 | CC1CN(C2Cc3ccc(OCCNS(=O)(=O)c4cn(C)cn4)cc3C2Cc2ccccc2)C1 (stereo not drawn) [Example 204, N-(2-(3-Benzyl-2-(3-methylazetidin-1-yl)-2,3-dihydro-1H-inden-5-yloxy)ethyl)-1-methyl-1H-imidazole-4-sulfonamide] | ≥ 7.00
